Laboratory results: patent US8778966B2, “Quinolinone derivatives as PARP and tank inhibitors” (Janssen Pharmaceutica, NV, priority 2007, dated 2014)

Target: T1, Human PARP-1 enzyme (Homo sapiens, UniProt P09874)
T1 construct: purchased Trevigen
Experiment: In vitro Scintillation Proximity Assay (SPA) for PARP-1 inhibitory activity
Assay type: biochemical
Conditions: read-out: in vitro SPA assay PARP-1 pIC50 (converted)
Outline: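 SPA assay: nicked-DNA-activated PARP-1 (0.1–0.2 μg/ml) ADP-ribosylates biotinylated histones (2 μg/ml) using [3H]-NAD+, 20 min at RT in Tris pH 8/DTT/MgCl2, stopped with 2 mM NAD+. Blank-subtracted cpm expressed as % control; IC50 by linear interpolation, reported as pIC50 (10−5 to 3×10−9 M tested).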

T1 sequence (P09874 whole entry): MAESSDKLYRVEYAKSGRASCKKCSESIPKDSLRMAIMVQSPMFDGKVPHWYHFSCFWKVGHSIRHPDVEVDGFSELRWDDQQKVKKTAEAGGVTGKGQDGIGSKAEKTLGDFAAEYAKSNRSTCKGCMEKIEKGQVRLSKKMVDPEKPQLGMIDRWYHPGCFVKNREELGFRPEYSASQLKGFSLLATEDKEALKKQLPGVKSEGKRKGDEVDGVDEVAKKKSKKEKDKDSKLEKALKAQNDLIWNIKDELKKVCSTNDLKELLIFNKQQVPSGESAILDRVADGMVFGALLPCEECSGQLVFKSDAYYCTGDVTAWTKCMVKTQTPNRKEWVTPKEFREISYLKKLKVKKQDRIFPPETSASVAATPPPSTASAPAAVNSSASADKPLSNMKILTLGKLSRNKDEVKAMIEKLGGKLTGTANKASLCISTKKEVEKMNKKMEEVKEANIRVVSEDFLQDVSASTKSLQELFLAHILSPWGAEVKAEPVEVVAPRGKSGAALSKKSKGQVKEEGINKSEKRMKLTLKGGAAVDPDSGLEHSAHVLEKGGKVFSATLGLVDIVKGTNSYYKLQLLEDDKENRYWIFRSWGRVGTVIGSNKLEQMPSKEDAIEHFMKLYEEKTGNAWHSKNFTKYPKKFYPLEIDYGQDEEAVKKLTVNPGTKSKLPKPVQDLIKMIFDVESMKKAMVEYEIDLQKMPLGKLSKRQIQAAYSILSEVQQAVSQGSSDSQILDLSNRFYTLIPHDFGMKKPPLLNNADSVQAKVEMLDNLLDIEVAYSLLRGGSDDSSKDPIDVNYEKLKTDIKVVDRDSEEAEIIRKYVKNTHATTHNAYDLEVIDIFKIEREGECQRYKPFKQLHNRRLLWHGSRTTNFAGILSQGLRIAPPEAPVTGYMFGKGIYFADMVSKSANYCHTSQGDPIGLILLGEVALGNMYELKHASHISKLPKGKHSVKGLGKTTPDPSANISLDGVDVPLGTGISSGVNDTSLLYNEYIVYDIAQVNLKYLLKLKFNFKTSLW

SMILES	IC50 [nM]
Cc1cc2ccc(C(C)(C#N)Cc3cccc(Oc4ncccn4)c3)cc2[nH]c1=O (centres unmarked) [Compound 191]	126
CCc1cc2ccc(C(C#N)(CC)C3CCc4ccc(OC)cc43)cc2[nH]c1=O (centres unmarked) [Compound 403]	501
CCc1cc2ccc(C(C)(C#N)CN3CCN(c4ncc(Br)cn4)CC3)cc2[nH]c1=O (centres unmarked) [Compound 374]	100
CCc1cc2ccc(C(C)(C#N)CN3CCc4ccccc4C3)cc2[nH]c1=O (centres unmarked) [Compound 376]	158
CCOc1cc(N(C)C)nc(CC(C)(C#N)c2ccc3cc(CC)c(=O)[nH]c3c2)n1 (centres unmarked) [Compound 312]	39.8
CCc1cc2ccc(C(C)(C#N)CCOc3ccnc(SC)n3)cc2[nH]c1=O (centres unmarked) [Compound 348]	79.4
Cc1cc2ccc(C(C)(C#N)C3CCc4c(Br)cccc43)cc2[nH]c1=O (centres unmarked) [Compound 248]	79.4
CCc1cc2ccc(C(C)(C#N)Cc3ccc(Cl)nc3OC)cc2[nH]c1=O (centres unmarked) [Compound 225]	39.8
CCc1cc2ccc(C(C)(C#N)Cc3ccc(C(F)(F)F)nc3C)cc2[nH]c1=O (centres unmarked) [Compound 340]	100
CCc1cc2ccc(C(C#N)(CC)Cc3cccc(CN)c3)cc2[nH]c1=O (centres unmarked) [Compound 390]	63.1
CCC(=O)c1cccc(CC(C)(C#N)c2ccc3cc(C)c(=O)[nH]c3c2)c1 (centres unmarked) [Compound 173]	126
Cc1cc2ccc([C@](C)(C#N)[C@@H]3CCc4ccc(Br)cc43)cc2[nH]c1=O [Compound 406]	158
Cc1cc2ccc([C@](C)(C#N)[C@H]3CCc4ccc(Br)cc43)cc2[nH]c1=O [Compound 407]	631
CCc1cc2ccc(C(C)(C#N)Cc3nc(C)cc(OC)n3)cc2[nH]c1=O (centres unmarked) [Compound 371]	100
CCc1cc2ccc(C(C)(C#N)C3CCc4ccc(Br)cc43)cc2[nH]c1=O (single isomer, unassigned) [Compound 380]	126
Cc1cc2ccc(C(C)(C#N)C3CCc4ccc(Br)cc43)cc2[nH]c1=O (centres unmarked) [Compound 249]	126
Cc1cc2ccc(C(C)(C#N)C3CCc4ccc(C#N)cc43)cc2[nH]c1=O (centres unmarked) [Compound 250]	100
CCc1cc2ccc(C(C)(C#N)Cc3cccc(O)c3)cc2[nH]c1=O (centres unmarked) [Compound 22]	126
CCc1cc2ccc(C(C#N)(CC)Cc3cccc(C#N)c3)cc2[nH]c1=O (centres unmarked) [Compound 265]	20
Cc1cc2ccc(C(C)(C#N)CCCCOc3ccccc3)cc2[nH]c1=O (centres unmarked) [Compound 272]	126
CCc1cc2ccc([C@@](C)(C#N)[C@H]3CCOc4ccccc43)cc2[nH]c1=O (single isomer, unassigned) [Compound 395]	63.1
CCc1cc2ccc(C(C)(C#N)Cc3cc(OC)cc(OC)n3)cc2[nH]c1=O (centres unmarked) [Compound 232]	25.1
CCc1cc2ccc(C(C)(C#N)CC3Oc4ccccc4O3)cc2[nH]c1=O (centres unmarked) [Compound 398]	100
Cc1cc2ccc(C(C)(C#N)Cc3cccc(Oc4ccccn4)c3)cc2[nH]c1=O (centres unmarked) [Compound 304]	100

SMILES	IC50 [nM]
CCc1cc2ccc(C(C)(C#N)Cc3cc(C#N)cc4c3OCC4)cc2[nH]c1=O (centres unmarked) [Compound 236]	20
CCc1cc2ccc([C@](C)(C#N)CN(C)Cc3ccc(C#N)cc3)cc2[nH]c1=O [Compound 190]	63.1
CCc1cc2ccc(C(C)(C#N)Cc3cccc(OCCOC)c3)cc2[nH]c1=O (centres unmarked) [Compound 24]	631
CCc1cc2ccc(C(C)(C#N)Cc3cccc(OCc4ccccc4)c3)cc2[nH]c1=O (centres unmarked) [Compound 23]	1260
CCc1cc2ccc(C(C)(C#N)Cc3cc(C)nc(Cl)c3)cc2[nH]c1=O (centres unmarked) [Compound 326]	63.1
CCc1cc2ccc(C(C#N)(CC)Cc3nc(OC)cc(OC)n3)cc2[nH]c1=O (centres unmarked) [Compound 321]	79.4
CCc1cc2ccc([C@](C)(C#N)C[C@H]3Cc4ccccc4O3)cc2[nH]c1=O [Compound 397]	126
CCc1cc2ccc(C(C)(C#N)CN(C)CCc3cn(C)c4ccccc34)cc2[nH]c1=O (centres unmarked) [Compound 303]	63.1
CCc1cc2ccc([C@](C)(C#N)[C@H]3CCOc4ccccc43)cc2[nH]c1=O (single isomer, unassigned) [Compound 394]	200
C=C(C)c1cccc(CC(C)(C#N)c2ccc3cc(CC)c(=O)[nH]c3c2)c1 (centres unmarked) [Compound 254]	31.6
CCc1cc2ccc(C(C)(C#N)CCOc3ncc(Br)cn3)cc2[nH]c1=O (centres unmarked) [Compound 349]	63.1
CCc1cc2ccc(C(C)(C#N)Cc3ccnc(F)c3)cc2[nH]c1=O (centres unmarked) [Compound 330]	39.8
CCc1cc2ccc(C(C)(C#N)Cc3cccc(S(F)(F)(F)(F)F)c3)cc2[nH]c1=O (centres unmarked) [Compound 177]	79.4
CCc1cc2ccc(C(C)(C#N)Cc3cccc(I)c3)cc2[nH]c1=O (centres unmarked) [Compound 19]	1000
Cc1cc2ccc([C@](C)(C#N)C3CCc4cccnc43)cc2[nH]c1=O (single isomer, unassigned) [Compound 388]	200
CCc1cc2ccc([C@@](C)(C#N)CN(C)Cc3ccc(C#N)cc3)cc2[nH]c1=O (single isomer, unassigned) [Compound 253]	100
Cc1cc2ccc([C@](C)(C#N)[C@@H]3CCc4cc(Br)ccc43)cc2[nH]c1=O [Compound 242]	158
CCc1cnc(OCCC(C)(C#N)c2ccc3cc(CC)c(=O)[nH]c3c2)nc1 (centres unmarked) [Compound 222]	50.1
CCc1cc2ccc(C(C)(C#N)Cc3cccc(N4CCOCC4)c3)cc2[nH]c1=O (centres unmarked) [Compound 21]	398
Cc1cc2ccc(C(C)(C#N)C3CCc4cc(Br)ccc43)cc2[nH]c1=O (centres unmarked) [Compound 244]	200
CCc1cc2ccc([C@](C)(C#N)Cc3cc(F)cc(F)c3)cc2[nH]c1=O [Compound 333]	31.6
CCc1cc2ccc(C(C#N)(CC)Cc3cccc(C#N)n3)cc2[nH]c1=O (centres unmarked) [Compound 342]	79.4
CCc1cc2ccc(C(C)(C#N)Cc3cccc(-c4cnn(C)c4)c3)cc2[nH]c1=O (centres unmarked) [Compound 17]	251
